Our source for the EC50 and IC50 values is patent publication US6352982B1, “4,1-benzoxazepines, their analogues, and their use as somatostatin agonists” (Takeda Chemical Industries, Ltd., priority 1997, dated 2002).

As usually defined, the IC50 is the concentration that gives 50% inhibition.

Test [1] deals with T1, human somatostatin receptor SSTR2 (Homo sapiens, UniProt P30874).
T1 construct: expressed in transfected cells; host or cells: CHO (dhfr-) cells, strain SSTR2-HS5-9
In words: Inhibition of forskolin-stimulated accumulation of cAMP in receptor expression CHO cells. In kind it is cell-based. The following applies: forskolin 10 μM, 37° C. for 30 minutes, read-out: Inhibitory effect on forskolin-stimulated accumulation of cAMP (ED50 value) SSTR2. As to the method:
(§1) For measurement of the accumulated intracellular adenosine 3′,5′-monophosphate (cAMP), the human somatostatin receptor expression cell strains, SSTR2-HS5-9, SSTR-3-15-19, SSTR4-1-2 and SSTR5-32-4, mentioned in Reference Examples 2-3, 3-3,4-3 and 5-3, respectively, were proliferated in 24-well plate until they were confluent. Said cells were washed twice with 1 ml of Medium A [Dulbecco's Modified Eagle Medium (DMEM), 20 mM 2-(4-(2-hydroxyethyl)-1-piperazinyl]ethanesulfonic acid (HEPES) (pH 7.5), 0.2% bovine serum albumin and 0.2 mM 3-isobutyl-1-methylxanthine (IBMX)]. The medium A was placed in wells each in quantity of 400 μl and incubated at 37° C. for an hour. A solution of the compounds of Example 5 and Example 102 (solution obtained by diluting with Medium A to the 10-fold concentration of the final concentration) and a forskolin solution (final concentration 10 μM) were placed in wells each in quantities of 50 μl and 50 μl, respectively, and incubated at 37° C. for 30 minutes. The cells were washed twice with 1 ml of Medium A. Medium A (500 μl) and 100 μl of a 20% aqueous perchloric acid solution were placed in each well and left standing for 20 minutes at 4° C. to lyse the cells. The lyzate was placed in an Eppendorf's tube and centrifuged (15.000 rpm, for 10 minutes). The supernatant was placed in another Eppendorf's tube in quantity of 500 μl and neutralized with 60 mM of a HEPES aqueous solution containing 1.5 M of potassium chloride. The content of cAMP contained in this extract was determined by the Amersham kit (cAMP EIA system).

For test [2], the target named is T2, human somatostatin receptor SSTR5 (Homo sapiens, UniProt P35346).
T2 construct: expressed in transfected cells; host or cells: CHO (dhfr-) cells, strain SSTR5-3-2-4 (also printed SSTR5-32-4)
The description is as above. Format: cell-based. The following applies: forskolin 10 μM, 37° C. for 30 minutes, read-out: Inhibitory effect on forskolin-stimulated accumulation of cAMP (ED50 value) SSTR5. As to the method:
as §1

The target of test [3] is T3, human somatostatin receptor SSTR4 (Homo sapiens, UniProt P31391).
T3 construct: expressed in transfected cells; host or cells: CHO (dhfr-) cells, strain SSTR4-1-2
The test is described as above. In kind it is cell-based. Particulars: forskolin 10 μM, 37° C. for 30 minutes, read-out: Inhibitory effect on forskolin-stimulated accumulation of cAMP (ED50 value) SSTR4. Here is the method:
as §1

The target of test [4] is T4, human somatostatin receptor SSTR3 (Homo sapiens, UniProt P32745).
T4 construct: expressed in transfected cells; host or cells: CHO (dhfr-) cells, strain SSTR3-15-19
The description is as above. In kind it is cell-based. Particulars: forskolin 10 μM, 37° C. for 30 minutes, read-out: Inhibitory effect on forskolin-stimulated accumulation of cAMP (ED50 value) SSTR3. As to the method: as §1

Test [5] has as its target T5, human somatostatin receptor SSTR1 (Homo sapiens, UniProt P30872).
T5 construct: expressed in transfected cells; host or cells: CHO (dhfr-) cells, strain SSTR1-8-3
In words: Binding inhibition of 125I-somatostatin, CHO cell membrane fraction. Particulars: 125I-somatostatin binding, 25° C. for 60 minutes, read-out: Activities for human somatostatin receptor (IC50 value) SSTR1. As to the method: A human somatostatin receptor expression CHO cell strain, SSTR1-8-3, SSTR2-HS5-9, SSTR3-15-19, SSTR4-1-2 or SSTR5-32-4 (10^9), was suspended in a phosphate buffered saline containing 5mM of EDTA (PBS-EDTA). The suspension was centrifuged. To the cell pellet was added 10 ml of a homogenation buffer solution for cells (10 mM NaHCO3, 5 mM EDTA, pH=7.5). The mixture was homogenized by a Politron homogenizer and centrifuged at 400×g for 15 minutes. The supernatant obtained was farther centrifuged at 100,000×g for an hour to obtain a precipitate of the membrane fraction. The precipitate was suspended in 2 ml of a buffer solution for assay ([…], 0.1% of BSA (bovine serum albumin) and […], 1 μ/ml of pepstatin, 20 μg/ml of leupeptin, 10 μg/ml of phosphoramide, pH=7.5). The suspension was centrifuged at […] for an hour. The membrane fraction recovered as precipitate was suspended again in 20 ml of buffer solution for assay. The suspension was placed in tubes and stored at −80° C. The suspension was thawed when used, and used at every use.
The membrane fraction prepared in Example 1 was diluted with a buffer solution for assay to adjust the concentration to 3 μg/ml. The diluate was placed in tubes each in quantity of 173 μl. To this were simultaneously added 2 μl of a solution of a compound in DMSO and 25μl of a 200pM radioisotope-labeled somatostatin (^125I-somatostatin: Amersham) solution. For measurement of the maximum binding, a reaction mixture added with 2 μl of DMSO and 25μl of a 200pM ^125I-somatostatin solution was prepared. For measurement of non-specific binding, a reaction mixture added with 2 μl of a 100 μM somatostatin solution diluted in DMSO and 25 μl of a 200pM ^125I-somatostatin solution was prepared at the same time. The mixtures were allowed to react at 25° C. for 60 minutes. Then, the reaction mixture was filtered by aspiration using a GF/B glass fiber filter paper (Whatman) treated with polyethylenimine. After filtration, the radioactivity of 125I-somatostatin remaining on the filter paper was measured by a γ-counter.
The binding rate (%) of each compound was calculated by the formula: […]
(where PBM: Percent maximum Binding, B: radioactivity when a compound was added, Bo: maximum binding radioactivity, NSB: non-specific binding radioactivity). The binding rates were calculated by changing the concentrations of the compound to obtain the 50% inhibiting concentration of the compound (IC50 value) by the Hil l plots.
The activities (IC50 value, μM) of the compounds for each human somatostatin receptor obtained by the above method are shown in the following Table 5.

Counter-ions that a name gives are not always drawn.

T1 sequence (P30874 whole entry): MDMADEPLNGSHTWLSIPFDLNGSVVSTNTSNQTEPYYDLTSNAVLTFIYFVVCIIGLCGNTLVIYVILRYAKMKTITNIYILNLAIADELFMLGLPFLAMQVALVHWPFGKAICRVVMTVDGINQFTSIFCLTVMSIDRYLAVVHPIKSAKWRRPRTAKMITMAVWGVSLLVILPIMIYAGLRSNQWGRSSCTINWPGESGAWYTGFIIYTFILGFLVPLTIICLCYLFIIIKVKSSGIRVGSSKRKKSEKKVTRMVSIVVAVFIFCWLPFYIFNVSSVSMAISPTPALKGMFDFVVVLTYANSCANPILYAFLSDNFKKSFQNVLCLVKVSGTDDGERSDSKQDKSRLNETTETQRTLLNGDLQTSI
T2 sequence (P35346 whole entry): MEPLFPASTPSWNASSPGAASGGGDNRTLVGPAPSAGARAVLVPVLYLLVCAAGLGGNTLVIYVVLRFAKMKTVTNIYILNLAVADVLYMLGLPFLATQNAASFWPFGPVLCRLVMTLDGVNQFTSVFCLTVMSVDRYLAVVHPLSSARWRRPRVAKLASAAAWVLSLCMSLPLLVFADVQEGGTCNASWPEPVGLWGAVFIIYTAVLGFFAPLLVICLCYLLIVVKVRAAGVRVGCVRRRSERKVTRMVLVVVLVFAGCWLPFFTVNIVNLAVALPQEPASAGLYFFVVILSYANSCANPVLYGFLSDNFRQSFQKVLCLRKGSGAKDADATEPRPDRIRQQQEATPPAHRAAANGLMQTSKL
T4 sequence (P32745 whole entry): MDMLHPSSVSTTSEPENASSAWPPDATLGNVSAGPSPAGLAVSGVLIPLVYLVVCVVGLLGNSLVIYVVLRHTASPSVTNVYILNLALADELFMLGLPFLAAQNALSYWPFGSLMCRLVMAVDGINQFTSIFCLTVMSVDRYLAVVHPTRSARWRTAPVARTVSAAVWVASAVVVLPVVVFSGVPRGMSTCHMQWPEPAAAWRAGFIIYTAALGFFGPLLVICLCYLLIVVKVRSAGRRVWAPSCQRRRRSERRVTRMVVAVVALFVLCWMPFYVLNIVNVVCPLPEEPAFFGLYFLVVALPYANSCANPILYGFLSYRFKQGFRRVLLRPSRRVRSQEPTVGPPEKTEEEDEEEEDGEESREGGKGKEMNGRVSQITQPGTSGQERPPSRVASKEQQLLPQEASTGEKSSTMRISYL
T3 sequence (P31391 whole entry): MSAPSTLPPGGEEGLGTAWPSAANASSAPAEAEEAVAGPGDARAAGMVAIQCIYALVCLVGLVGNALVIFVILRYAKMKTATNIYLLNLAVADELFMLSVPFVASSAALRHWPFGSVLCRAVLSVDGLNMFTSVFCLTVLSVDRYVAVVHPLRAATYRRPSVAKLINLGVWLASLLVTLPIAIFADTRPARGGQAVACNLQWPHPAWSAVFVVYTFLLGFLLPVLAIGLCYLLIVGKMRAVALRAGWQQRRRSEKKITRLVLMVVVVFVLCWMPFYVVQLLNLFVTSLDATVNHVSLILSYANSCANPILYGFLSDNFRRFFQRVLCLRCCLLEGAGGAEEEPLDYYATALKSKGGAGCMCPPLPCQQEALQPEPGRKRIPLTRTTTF
T5 sequence (P30872 whole entry): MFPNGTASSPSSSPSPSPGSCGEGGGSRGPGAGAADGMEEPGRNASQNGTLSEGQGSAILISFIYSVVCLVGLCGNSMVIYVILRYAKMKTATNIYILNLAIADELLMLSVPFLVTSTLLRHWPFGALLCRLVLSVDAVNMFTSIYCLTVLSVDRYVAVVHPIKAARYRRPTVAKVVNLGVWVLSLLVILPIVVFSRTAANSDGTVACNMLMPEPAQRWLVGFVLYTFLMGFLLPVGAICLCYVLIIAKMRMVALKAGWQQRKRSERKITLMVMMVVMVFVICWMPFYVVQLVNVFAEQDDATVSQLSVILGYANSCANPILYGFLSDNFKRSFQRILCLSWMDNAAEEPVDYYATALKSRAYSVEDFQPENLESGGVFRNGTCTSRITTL

`NCc1cccc(C2OC(CC(=O)NCc3ccccc3F)C(=O)N(Cc3ccc(-c4ccccc4)cc3)c3ccc(Cl)cc32)c1` (stereo not drawn) [Example 5, 3,5-Trans-N-(2-fluorobenzyl)-5-(3-aminomethylphenyl)-1-(4-biphenylmethyl)-7-chloro-2-oxo-1,2,3,5-tetrahydro-4,1-benzoxazepine-3-acetamide•monohydrochloride]: the EC50 in test [1] is 300 nM; in test [2] it was 0.7 nM; in test [3], 200 nM; in test [4], 2 nM.
Turning to `NCc1cccc(C2OC(CC(=O)NCc3ccccc3F)C(=O)N(Cc3ccc(O)cc3)c3ccc(Cl)cc32)c1` (stereo not drawn) [Example 102, 3,5-Trans-N-(2-fluorobenzyl)-5-(3-aminomethylphenyl)-7-chloro-1-(4-hydroxybenzyl)-2-oxo-1,2,3,5-tetrahydro-4,1-benzoxazepine-3-acetamide•monohydrochloride], the EC50 in test [1] is 200 nM; in test [2], 0.3 nM; in test [3], 100 nM; in test [4], 0.3 nM. Also, in test [5], the IC50 is over 1000 nM.
